Assays:
[1] = test system: human iPS cells (1231A3 strain); test: Neural tissue / neuroepithelium formation in cell aggregates, bright field observation; format: cell-based; settings: for cell aggregate growth and neuroepithelium formation: step 1 for 1 day: SB431542 5 μM or LDN193189 100 nM, both U-bottom plate and F-bottom culture dish, day 19
Description: The above human iPS cells were treated with the cell dispersion solution by using TrypLE Select (Life Technologies), further dispersed into single cells by pipetting operation, and the above human iPS cells dispersed into single cells were suspended in 100 μl of a serum-free medium at 1.2×10^4 cells per well of a non-cell-adhesive 96-well culture plate ([…], manufactured by SUMITOMO BAKELITE), and subjected to suspension culturing at 37° C., 5% CO2. As the serum-free medium (gfCDM+KSR) therefor, a serum-free medium which is a 1:1 mixture of F-12 medium and IMDM medium supplemented with 10% KSR, 450 μM 1-monothioglycerol, 1× Chemically defined lipid concentrate was used. At the time of the start of suspension culturing (day 0 after the start of suspension culturing, start of step 2), Y27632 (final concentration 20 μM) was added to the above serum-free medium. By day 2 after the start of suspension culturing, cell aggregates were formed under both conditions with preconditioning and conditions without preconditioning (step 2 completed, step 3 start). On day 3 after the start of suspension culturing, a serum-free medium (50 μl) free of Y27632 was added. On day 6 or later after the start of suspension culturing, a half amount of the medium was changed to the above serum-free medium free of Y27632 once per 2-4 days. In the half-medium change operation, a half volume, namely 75 μl, of the medium in the culture vessel was discarded, the above fresh serum-free medium (75 μl) was added to make the total medium amount 150 μl. […]
At the time of the start of suspension culturing (day 0 after the start of suspension culturing, start of step 2), the cells were cultured under the following 2 conditions including condition 1 and condition 2. As condition 1(+SAG), at the time of the start of suspension culturing, Y27632 (final concentration 20 μM) and SAG (Shh signal transduction pathway activating substance, 300 nM) were added to the above serum-free medium. As condition 2(−SAG), at the time of the start of suspension culturing, Y27632 (final concentration 20 μM) was added to the above serum-free medium and SAG was not added. By day 2 after the start of suspension culturing, cell aggregates were formed (step 2 completed, step 3 start) under both conditions. On day 3 after the start of suspension culturing, a medium (50 μl) free of Y27632, SAG and containing human recombinant BMP4 (manufactured by R&D) was added such that the final concentration of exogenous human recombinant BMP4 was 1.5 nM (55 ng/ml). On day 6 after the start of suspension culturing, a half amount of the medium was changed with a serum-free medium free of Y27632, SAG and human recombinant BMP4. Thereafter, a half amount of the medium was changed, once every 2-4 days, with the above serum-free medium free of Y27632, SAG, and human recombinant BMP4.
The thus-prepared cells were subjected to bright field observation on day 18 after the start of suspension culturing under an inverted microscope (KEYENCE) (FIG. 15).
At the time of the start of suspension culturing (day 0 after the start of suspension culturing, start of step 2), the cells were cultured under the following 2 conditions including condition 1 and condition 2. As condition 1(+SAG), at the time of the start of suspension culturing, Y27632 (final concentration 20 μM) and SAG (Shh signal transduction pathway activating substance, final concentration 30 nM) were added to the above serum-free medium. As condition 2(−SAG), at the time of the start of suspension culturing, Y27632 (final concentration 20 μM) was added to the above serum-free medium and SAG was not added. By day 2 after the start of suspension culturing, cell aggregates were formed under both conditions (step 2 completed, step 3 start). […]

[2] = test system: human iPS cells (1231A3 strain); test: Form of cell aggregate in suspension culturing, bright field observation (good / medium / bad form); format: cell-based; settings: step 1 for 1 day: SB431542 5 μM or LDN193189 100 nM; day 9
[3] = step 1 for 1 day: SB431542 5 μM, LDN193189 100 nM or SAG 300 nM, SAG 300 nM in step 2, with or without BMP4 1.5 nM in step 3, day 23
[4] = LDN193189 100 nM 1 day in step 1, day 23

SMILES	cell aggregate and neural tissue formation ([1]; step 1: SAG 300 nM for 24-144 hr, co-presence of A83-01 0.5 μM for the last 24 hr, SAG 30 nM added or not in step 2, day 16)	cell aggregate and neural tissue formation ([1]; step 1: SAG 300 nM for 48 or 72 hr, or A83-01 0.5 μM and SAG 300 nM for 24, 48 or 72 hr, SAG 30 nM added or not added in step 2, BMP4 1.5 nM on day 3, day 17)	cell aggregate and neural tissue formation [1, 3]	cell aggregate growth and neuroepithelium formation ([1]; SAG 300 nM in step 2)	shape of cell aggregate in step 3 compared with untreated group [2]	cell aggregate containing a neural tissue (maintained, neural tissue not less than 10%) [1, 4]	cell aggregate with a bad form (collapsed, neural tissue not more than 3%) [1, 4]	cell aggregate with a medium level form (maintained, neural tissue not more than 10%) [1, 4]	neural tissue formation in step 3 [1, 4]
CNC1CCC(N(Cc2cccc(-c3ccncc3)c2)C(=O)c2sc3ccccc3c2Cl)CC1 (stereo not shown) [SAG]	a neural tissue could be formed efficiently	a neural tissue can be formed efficiently	a neural tissue can be formed efficiently	–	–	–	–	–	–
NC(=O)c1ccc(-c2nc(-c3ccc4c(c3)OCO4)c(-c3ccccn3)[nH]2)cc1 [SB431542, 4-(5-benzol[1,3]dioxol-5-yl-4-pyridin-2-yl-1H-imidazol-2-yl)-benzamide]	–	–	a neural tissue can be formed efficiently	a cell aggregate grew and neuroepithelium was formed	good shape of cell aggregate	–	–	–	–
c1ccc2c(-c3cnn4cc(-c5ccc(N6CCNCC6)cc5)cnc34)ccnc2c1 [LDN193189, 4-[6-(4-piperazin-1-ylphenyl)pyrazolo[1,5-a]pyrimidin-3-yl]quinoline]	–	–	a neural tissue can be formed efficiently	a cell aggregate grew and neuroepithelium was formed	good shape of a cell aggregate	about 100%	about 0%	about 0%	a neural tissue having a neuroepithelial structure was formed

— US12492373B2, “Production method for nerve tissue” (Racthera Co., Ltd., priority 2014, dated 2025)
